The record followed here is patent US8901124B2, “Pyridazine amide compounds useful as SYK inhibitors” (priority 2012, dated 2014).

The term IC50 denotes the midpoint of a concentration-inhibition curve. Low readings indicate greater potency in that assay, high ones weaker potency in that assay.

Structures are written as SMILES.

In this experiment the test system is HUMAN WHOLE BLOOD. Description: IC50 in human whole blood. Format: cell-based.
Compound `NC(=O)c1nnc(N[C@@H]2CCCC[C@@H]2N)cc1Nc1cccc(-n2cccn2)n1` [Compound I-33, 4-(6-(1H-pyrazol-1-yl)pyridin-2-ylamino)-6-((1R,2S)-2-aminocyclohexylamino)pyridazine-3-carboxamide] came in with an IC50 of 1420 nM. The figure for `NC(=O)c1nnc(N[C@@H]2CCCC[C@@H]2N)cc1Nc1cccc(-n2nccn2)n1` [Compound I-23, 4-(6-(2H-1,2,3-triazol-2-yl)pyridin-2-ylamino)-6-((1R,2S)-2-aminocyclohexylamino)pyridazine-3-carboxamide] is 810 nM; for `CCCc1cc(C)cc(Nc2cc(N[C@@H]3CCOC[C@@H]3N)nnc2C(N)=O)n1` [Compound I-39, 6-((3R,4R)-3-aminotetrahydro-2H-pyran-4-ylamino)-4-(4-methyl-6-propylpyridin-2-ylamino)pyridazine-3-carboxamide] it is 818 nM.

In turn, `CC(C)(O)c1cccc(Nc2cc(N[C@@H]3CCCC[C@@H]3N)nnc2C(N)=O)n1` [Compound I-37, 6-((1R,2S)-2-aminocyclohexylamino)-4-(6-(2-hydroxypropan-2-yl)pyridin-2-ylamino)pyridazine-3-carboxamide] came in with an IC50 of 2340 nM. As for `COc1nc(Nc2cc(N[C@@H]3CCOC[C@@H]3N)nnc2C(N)=O)ccc1C(C)C` [Compound I-42, 6-((3R,4R)-3-aminotetrahydro-2H-pyran-4-ylamino)-4-(5-isopropyl-6-methoxypyridin-2-ylamino)pyridazine-3-carboxamide], half-maximal inhibition (IC50) required 909 nM. Compound `CCCc1cc(C)cc(Nc2cc(N[C@@H]3CCCC[C@@H]3N)nnc2C(N)=O)n1` [Compound I-38, 6-((1R,2S)-2-aminocyclohexylamino)-4-(4-methyl-6-propylpyridin-2-ylamino)pyridazine-3-carboxamide] displayed an IC50 of 642 nM.

`Cc1cc(Nc2cc(N[C@@H]3CCCC[C@@H]3N)nnc2C(N)=O)nc(C(C)C)c1` [Compound I-35, 6-((1R,2S)-2-aminocyclohexylamino)-4-(6-isopropyl-4-methylpyridin-2-ylamino)pyridazine-3-carboxamide]: the IC50 was determined as 923 nM.

For `CC(C)Oc1cccc(Nc2cc(N[C@@H]3CCOC[C@@H]3N)nnc2C(N)=O)n1` [Compound I-43, 6-((3R,4R)-3-aminotetrahydro-2H-pyran-4-ylamino)-4-(6-isopropoxypyridin-2-ylamino)pyridazine-3-carboxamide], the IC50 is 372 nM. Compound `Cn1cnc2c(Nc3cc(N[C@@H]4CCCC[C@@H]4N)nnc3C(N)=O)cccc21` [Compound I-22, 6-((1R,2S)-2-aminocyclohexylamino)-4-(1-methyl-1H-benzo[d]imidazol-4-ylamino)pyridazine-3-carboxamide] came in with a half-inhibitory concentration (IC50) of 21500 nM.

As for `CC(C)(C)c1cccc(Nc2cc(N[C@@H]3CCOC[C@@H]3N)nnc2C(N)=O)n1` [Compound I-29, 6-((3R,4R)-3-aminotetrahydro-2H-pyran-4-ylamino)-4-(6-tert-butylpyridin-2-ylamino)pyridazine-3-carboxamide], it took 1800 nM to reach half-maximal inhibition (IC50). `CC(C)(C#N)c1cccc(Nc2cc(N[C@@H]3CCCC[C@@H]3N)nnc2C(N)=O)n1` [Compound I-36, 6-((1R,2S)-2-aminocyclohexylamino)-4-(6-(2-cyanopropan-2-yl)pyridin-2-ylamino)pyridazine-3-carboxamide]: the IC50 was found to be 2090 nM. `CCCc1nc(Nc2cc(N[C@@H]3CCOC[C@@H]3N)nnc2C(N)=O)ccc1OC` [Compound I-40, 6-((3R,4R)-3-aminotetrahydro-2H-pyran-4-ylamino)-4-(5-methoxy-6-propylpyridin-2-ylamino)pyridazine-3-carboxamide]: the IC50 was determined as 332 nM.

`CCOc1cccc(Nc2cc(N[C@@H]3CCCC[C@@H]3N)nnc2C(N)=O)n1` [Compound I-30, 6-((1R,2S)-2-aminocyclohexylamino)-4-(6-ethoxypyridin-2-ylamino)pyridazine-3-carboxamide] registered an IC50 of 487 nM. The figure for `Cc1ccc(Nc2cc(N[C@@H]3CCOC[C@@H]3N)nnc2C(N)=O)nc1C(C)C` [Compound I-27, 6-((3R,4R)-3-Amino-tetrahydro-pyran-4-ylamino)-4-(6-isopropyl-5-methyl-pyridin-2-ylamino)-pyridazine-3-carboxylic acid amide] is 313 nM.
